Literature values, collected in patent publication US20040033532A1, “Use of three-dimensional crystal structure coordinates to design and synthesize domain-selective inhibitors for angiotensin-converting enzyme (ACE)” (priority 2002, published 2004).
“Also recorded” adds a separate entry of the source. Where two headings read alike, the source gives them in different places. Each block holds one molecule with its values, some of them ahead of it.

Legend:
ACE = ACE (Homo sapiens, UniProt P12821)
[1] = tested on: ACE N domain and C domain active sites; conditions: N domain vs C domain
rabbit liver ACE = target: T1, rabbit liver ACE (Oryctolagus cuniculus, UniProt P12822)
T1 construct: rabbit liver ACE in vitro; from tissue; host or cells: rabbit liver
T1 sequence (P12822 34-1310): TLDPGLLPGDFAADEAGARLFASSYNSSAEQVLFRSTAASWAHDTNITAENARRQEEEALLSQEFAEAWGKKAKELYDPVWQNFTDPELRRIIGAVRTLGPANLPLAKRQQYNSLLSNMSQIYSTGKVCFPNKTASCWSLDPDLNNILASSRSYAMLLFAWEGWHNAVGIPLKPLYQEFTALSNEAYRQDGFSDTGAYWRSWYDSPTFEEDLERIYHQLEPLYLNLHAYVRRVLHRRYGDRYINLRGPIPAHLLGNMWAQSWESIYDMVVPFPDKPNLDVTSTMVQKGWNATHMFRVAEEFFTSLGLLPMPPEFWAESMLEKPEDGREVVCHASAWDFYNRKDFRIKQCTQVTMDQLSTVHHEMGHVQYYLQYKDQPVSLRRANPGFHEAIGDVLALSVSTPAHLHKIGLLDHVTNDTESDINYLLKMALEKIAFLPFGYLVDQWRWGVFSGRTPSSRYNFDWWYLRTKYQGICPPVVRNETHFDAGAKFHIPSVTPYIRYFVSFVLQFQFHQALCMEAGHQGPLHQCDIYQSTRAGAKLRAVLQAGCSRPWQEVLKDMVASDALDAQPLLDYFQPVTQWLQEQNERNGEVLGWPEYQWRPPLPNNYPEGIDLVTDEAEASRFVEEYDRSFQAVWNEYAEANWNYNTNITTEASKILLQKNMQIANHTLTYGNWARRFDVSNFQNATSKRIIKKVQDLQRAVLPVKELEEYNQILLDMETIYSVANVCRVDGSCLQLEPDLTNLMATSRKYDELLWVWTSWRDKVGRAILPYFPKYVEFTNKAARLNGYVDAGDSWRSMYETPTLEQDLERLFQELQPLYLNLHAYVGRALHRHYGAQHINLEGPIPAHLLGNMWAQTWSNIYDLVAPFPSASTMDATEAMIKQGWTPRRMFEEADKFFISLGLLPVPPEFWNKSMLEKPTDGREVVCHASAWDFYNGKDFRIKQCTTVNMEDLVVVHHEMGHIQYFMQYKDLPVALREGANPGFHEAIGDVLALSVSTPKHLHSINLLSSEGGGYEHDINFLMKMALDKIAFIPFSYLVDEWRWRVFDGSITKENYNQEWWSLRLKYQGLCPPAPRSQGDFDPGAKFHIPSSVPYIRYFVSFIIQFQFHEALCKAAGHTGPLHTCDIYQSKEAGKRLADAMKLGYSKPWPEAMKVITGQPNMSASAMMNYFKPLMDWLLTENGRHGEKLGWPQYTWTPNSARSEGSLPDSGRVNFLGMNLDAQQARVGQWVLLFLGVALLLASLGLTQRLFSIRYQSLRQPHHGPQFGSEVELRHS

Sequence of ACE (P12821 30-1306, species assumed): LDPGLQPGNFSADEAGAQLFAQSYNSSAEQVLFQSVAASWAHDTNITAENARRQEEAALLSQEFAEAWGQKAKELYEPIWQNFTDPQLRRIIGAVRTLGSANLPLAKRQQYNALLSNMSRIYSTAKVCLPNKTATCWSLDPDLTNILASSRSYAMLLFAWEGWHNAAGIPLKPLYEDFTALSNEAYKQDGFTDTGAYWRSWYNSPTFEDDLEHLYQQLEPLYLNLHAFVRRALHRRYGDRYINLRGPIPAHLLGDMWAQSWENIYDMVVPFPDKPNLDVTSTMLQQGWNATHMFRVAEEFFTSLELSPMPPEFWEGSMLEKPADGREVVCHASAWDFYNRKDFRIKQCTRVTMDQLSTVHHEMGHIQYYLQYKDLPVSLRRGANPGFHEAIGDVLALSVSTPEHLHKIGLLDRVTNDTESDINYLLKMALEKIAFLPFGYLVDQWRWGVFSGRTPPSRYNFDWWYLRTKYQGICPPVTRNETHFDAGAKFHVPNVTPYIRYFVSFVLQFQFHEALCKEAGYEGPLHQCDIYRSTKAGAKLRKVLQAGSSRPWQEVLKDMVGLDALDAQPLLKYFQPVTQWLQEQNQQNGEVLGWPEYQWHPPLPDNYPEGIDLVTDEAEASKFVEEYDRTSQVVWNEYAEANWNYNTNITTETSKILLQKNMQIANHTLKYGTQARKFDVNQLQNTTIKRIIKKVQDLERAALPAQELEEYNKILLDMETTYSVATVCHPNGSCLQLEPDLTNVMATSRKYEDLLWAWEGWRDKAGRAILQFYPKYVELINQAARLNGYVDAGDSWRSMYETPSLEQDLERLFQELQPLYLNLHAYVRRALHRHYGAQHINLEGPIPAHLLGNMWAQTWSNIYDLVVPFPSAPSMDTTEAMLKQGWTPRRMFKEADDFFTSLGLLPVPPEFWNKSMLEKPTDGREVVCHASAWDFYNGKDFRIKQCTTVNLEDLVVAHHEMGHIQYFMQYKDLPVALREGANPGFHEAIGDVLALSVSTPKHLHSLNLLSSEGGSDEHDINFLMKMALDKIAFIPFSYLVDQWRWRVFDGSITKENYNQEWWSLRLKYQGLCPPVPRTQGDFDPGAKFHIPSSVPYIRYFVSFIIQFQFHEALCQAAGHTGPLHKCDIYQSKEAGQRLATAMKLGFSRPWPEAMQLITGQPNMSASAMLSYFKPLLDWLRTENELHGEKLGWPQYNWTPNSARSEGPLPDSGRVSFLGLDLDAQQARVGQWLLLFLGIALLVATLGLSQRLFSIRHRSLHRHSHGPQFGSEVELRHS

IC50 (ACE; Hip-Gly-Gly as substrate): 7 nM | Ki (ACE; competitive inhibitor of ACE): 2.7 ± 0.2 nM
Molecule: CN(CC(=O)NO)C(=O)[C@@H]1CCCC[C@@H]1C(=O)O [Compound 2]

Molecule: Ac-Asp-Phe-Ψ(PO2—CH2)-Ala-Ala-NH2
domain selectivity of ACE inhibition (in words) [1]: far better inhibitor of the N domain | domain selectivity of ACE inhibition (in words) ([1]; listed as Ac-Asp-Phe-Ψ(PO2—CH2)-Ala-Ala): far better inhibitor of the N-domain

Molecule: Angiotensin (1-7) [Asp^1-Pro^7] (DRVYIHP; Angiotensin 1-7; UniProt P01019 25-31, looked up, fragment) [peptide Asp1-Pro7 of angiotensin]
domain selectivity of ACE inhibition (in words) [1]: more effective inhibitors of the C domain

Molecule: O=C(N[C@@H](Cc1ccccc1)C(=O)CCC(=O)N1CCC[C@H]1C(=O)O)c1ccccc1 [keto-ACE, Bz-Phe Ψ (CO—CH2)Gly-Pro]
domain selectivity of ACE inhibition (in words) [1]: more effective inhibitors of the C domain; also recorded: C-domain specific inhibitor

IC50 (rabbit liver ACE; Hip-His-Leu hydrolysis, rabbit liver ACE, in vitro): 230000 nM | enzyme activity remaining (rabbit liver ACE; after 10 minutes of incubation with 0.4 mM of inhibitor): ~50% | recovery of enzyme activity after dialysis (rabbit liver ACE; after dialysis): could not be recovered
Molecule: C[C@H](NC(=O)/C=C/c1ccccc1)C(=O)N1CCC[C@H]1C(=O)O [Compound 1]
